Results reported in PMC8848500 (Bioorganic & medicinal chemistry, 2020).

Tests used:
[1] = target: T1, human neutrophil elastase (HNE) (Homo sapiens, UniProt P08246); test: HNE inhibition assay; type: biochemical
T1 sequence (P08246 30-267): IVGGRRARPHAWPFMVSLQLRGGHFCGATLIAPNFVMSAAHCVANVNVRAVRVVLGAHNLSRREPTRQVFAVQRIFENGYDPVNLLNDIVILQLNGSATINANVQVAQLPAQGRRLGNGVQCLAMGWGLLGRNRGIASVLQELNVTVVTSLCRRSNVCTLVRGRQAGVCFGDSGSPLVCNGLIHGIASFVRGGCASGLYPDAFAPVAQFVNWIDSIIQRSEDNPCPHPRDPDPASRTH

[2] = Chemical stability at room temperature; type: physicochemical; conditions: conversion to precursors 14 and 18

IC50 [1] | Compound | also measured
> 50 µM | N#Cc1nn(Cc2ccccc2)c2ncccc12 [Compound 2c, 1-Benzyl-1H-pyrazolo[3,4-b]pyridine-3-carbonitrile] | HNE inhibitory activity (in words) [1]: complete loss of HNE inhibitory activity
– | Cc1cccc(C(=O)n2nc(C#N)c3cccnc32)c1 [Compound 2e, 1-(3-Methylbenzoyl)-1H-pyrazolo[3,4-b]pyridine-3-carbonitrile] | fold less potent than A ([1]; HNE IC50 versus reference A): 47 fold
– | N#Cc1nn(C(=O)C2CCCCC2)c2ncccc12 [Compound 2i, 1-(Cyclohexanecarbonyl)-1H-pyrazolo[3,4-b]pyridine-3-carbonitrile] | HNE inhibitory activity (in words) [1]: loss of activity
1.5 ± 0.14 µM | O=C(Nc1nn(C(=O)C2CC2)c2ncccc12)C1CC1 [Compound 7, N-(1-(Cyclopropanecarbonyl)-1H-pyrazolo[3,4-b]pyridin-3-yl)cyclopropanecarboxamide] | –
25.2 ± 1.3 µM | CC(=O)n1nc(NC(=O)c2cccc(C)c2)c2cccnc21 [Compound 9, N-(1-Acetyl-1H-pyrazolo[3,4-b]pyridin-3-yl)-3-methylbenzamide] | –
– | Cc1cccc(C(=O)n2cc(C#N)c3ccncc32)c1 [Compound 13e, 1-(3-Methylbenzoyl)-1H-pyrrolo[2,3-c]pyridine-3-carbonitrile] | HNE inhibitory activity (in words) [1]: reduced activity compared to the reference compounds B and C
– | N#Cc1cn(C(=O)C2CC2)c2cnccc12 [Compound 13f, 1-(Cyclopropanecarbonyl)-1H-pyrrolo[2,3-c]pyridine-3-carbonitrile] | HNE inhibitory activity (in words) [1]: reduced activity compared to the reference compounds B and C
– | Cc1cccc(C(=O)n2ccc3nccnc32)c1 [Compound 15a, (5H-Pyrrolo[2,3-b]pyrazin-5-yl)(m-tolyl)methanone] | chemical stability [2]: not chemically stable
– | O=C(C1CC1)n1ccc2nccnc21 [Compound 15b, Cyclopropyl(5H-pyrrolo[2,3-b]pyrazin-5-yl)methanone] | HNE inhibitory activity (in words) [1]: reduced activity by two orders of magnitude
– | Cc1cccc(C(=O)n2cc(C#N)c3nccnc32)c1 [Compound 19a, 5-(3-Methylbenzoyl)-5H-pyrrolo[2,3-b]pyrazine-7-carbonitrile] | chemical stability [2]: not chemically stable
> 50 µM | COc1cccc(NC(=O)c2cnc3cc(C)nn3c2C)c1 [Compound 22a, N-(3-Methoxyphenyl)-2,7-dimethylpyrazolo[1,5-a]pyrimidine-6-carboxamide] | –
> 50 µM | COc1cccc(NC(=O)c2cnc3cc(C(C)(C)C)nn3c2C)c1 [Compound 22b, 2-(tert-Butyl)-N-(3-methoxyphenyl)-7-methylpyrazolo[1,5-a]pyrimidine-6-carboxamide] | –
> 50 µM | COc1cccc(NC(=O)c2cnc3c(Cl)c(C(C)(C)C)nn3c2C)c1 [Compound 22c, 2-(tert-Butyl)-3-chloro-N-(3-methoxyphenyl)-7-methylpyrazolo[1,5-a]pyrimidine-6-carboxamide] | –
> 50 µM | COc1cccc(CNC(=O)c2cnc3cc(C)nn3c2C)c1 [Compound 22d, N-(3-Methoxybenzyl)-2,7-dimethylpyrazolo[1,5-a]pyrimidine-6-carboxamide] | –
> 50 µM | COc1cccc(CNC(=O)c2cnc3cc(C(C)(C)C)nn3c2C)c1 [Compound 22e, 2-(tert-Butyl)-N-(3-methoxybenzyl)-7-methylpyrazolo[1,5-a]pyrimidine-6-carboxamide] | –
> 50 µM | COc1cccc(CNC(=O)c2cnc3c(Cl)c(C(C)(C)C)nn3c2C)c1 [Compound 22f, 2-(tert-Butyl)-3-chloro-N-(3-methoxybenzyl)-7-methylpyrazolo[1,5-a]pyrimidine-6-carboxamide] | –

Compound | IC50 [1] | also measured
N#Cc1nn(C(=O)c2ccccc2)c2ncccc12 [Compound 2d, 1-Benzoyl-1H-pyrazolo[3,4-b]pyridine-3-carbonitrile] | 0.14 µM | –
